# Measurements taken from ChEMBL document CHEMBL1154582, “Thonningianins A and B, new antioxidants from the African medicinal herb Thonningia sanguinea” (J Nat Prod, 2000).
# Activity calls are given as the source filed them. No cut-off for these calls is given here.
# Columns and labels:
# Format in all cases: functional
# [1] = DPPH radical scavenging activity at 34.5 uM by ESR spectra
# [2] = DPPH radical scavenging activity by ESR spectra
# [3] = DPPH radical scavenging activity at 25 uM by ESR spectra
IC50 [2] [µM],SMILES,Activity [1] [%],Activity [3]
21,O=C1OC[C@H]2O[C@@H](Oc3cc(O)c(C(=O)CCc4ccccc4)c(O)c3)[C@H](O)[C@@H](O)[C@@H]2OC(=O)c2cc(O)c(O)c(O)c2-c2c1cc(O)c(O)c2O [THONNINGIANIN B],90,
8,O=C(O[C@@H]1[C@@H](O)[C@H](Oc2cc(O)c(C(=O)CCc3ccccc3)c(O)c2)O[C@@H]2COC(=O)c3cc(O)c(O)c(O)c3-c3c(cc(O)c(O)c3O)C(=O)O[C@@H]12)c1cc(O)c(O)c(O)c1 [THONNINGIANIN A],,Active
